For experiment [1], the system named is SW-620. The experiment is described as follows: Reversal of resistance to paclitaxel-induced cytotoxicity in human SW-620/AD300 cells assessed as reduction in paclitaxel IC50 at 5 uM preincubated for 4 hrs followed by paclitaxel addition and measured after 72 hrs by MTT assay (reference value: 4.23 +/- 0.50 uM). Type of experiment: functional, cell-based. For orientation: Formazan colour is commonly taken as a measure of viable cells.

Experiment [2] concerns SW-620. Nature of the experiment: Reversal of resistance to paclitaxel-induced cytotoxicity in human SW-620/AD300 cells assessed as reversal fold at 5 uM preincubated for 4 hrs followed by paclitaxel addition and measured after 72 hrs by MTT assay relative to paclitaxel. Type of experiment: functional. To be noted: time 76 hrs.
The test system of experiment [3] is SW-620. Nature of the experiment: Reversal of resistance to paclitaxel-induced cytotoxicity in human SW-620/AD300 cells assessed as reduction in paclitaxel IC50 at 2 uM preincubated for 4 hrs followed by paclitaxel addition and measured after 72 hrs by MTT assay (reference value: 4.23 +/- 0.50 uM). In kind it is functional, cell-based.
The test system of experiment [4] is SW-620. The experiment is described as follows: Reversal of resistance to paclitaxel-induced cytotoxicity in human SW-620/AD300 cells assessed as reversal fold at 2 uM preincubated for 4 hrs followed by paclitaxel addition and measured after 72 hrs by MTT assay relative to paclitaxel. To be noted: time 76 hrs. Type of experiment: functional.
Experiment [5] deals with SW-620. Nature of the experiment: Reversal of resistance to paclitaxel-induced cytotoxicity in human SW-620/AD300 cells assessed as reversal fold at 1 uM preincubated for 4 hrs followed by paclitaxel addition and measured after 72 hrs by MTT assay relative to paclitaxel. In kind it is functional. The note with it: time 76 hrs.
Experiment [6] deals with SW-620. The experiment is described as follows: Reversal of resistance to paclitaxel-induced cytotoxicity in human SW-620/AD300 cells assessed as reduction in paclitaxel IC50 at 1 uM preincubated for 4 hrs followed by paclitaxel addition and measured after 72 hrs by MTT assay (reference value: 4.23 +/- 0.50 uM). Type of experiment: functional, cell-based.

Structures are written as SMILES.

One may read the IC50 as the concentration that inhibits the measured activity by half.

As to `Cc1cc(Nc2ccc(C(=O)/C=C/c3ccc4ccccc4c3)cc2)n2nc(SCc3ccccc3)nc2n1`, in the experiment on SW-620 [1], the IC50 was found to be 300 nM. Besides, in the experiment with SW-620 [2], the “fold change (FC)” value was found to be 14.1.

Turning to `COc1ccc(/C=C/C(=O)c2ccc(Nc3cc(C)nc4nc(SCc5nc6ccccc6[nH]5)nn34)cc2)cc1`, the IC50 in the experiment on SW-620 [3] turned out to be 170 nM. The “fold change (FC)” value in the experiment with SW-620 [4] came to 24.88.

In the case of `Cc1cc(Nc2ccc(C(=O)/C=C/c3ccccc3F)cc2)n2nc(SCc3nc4ccccc4[nH]3)nc2n1`, the half-inhibitory concentration (IC50) in the experiment on SW-620 [3] amounted to 250 nM. Further, in the experiment with SW-620 [4], the “fold change (FC)” value is recorded as 16.92.

In the case of `Cc1cc(Nc2ccc(C(=O)/C=C/c3cccc(Br)n3)cc2)n2nc(SCc3nc4ccccc4[nH]3)nc2n1`, in the experiment on SW-620 [5], the “fold change (FC)” value worked out at 72.93. The half-maximal inhibitory concentration (IC50) in the experiment on SW-620 [6] turned out to be 58 nM.

In the case of `Cc1cc(Nc2ccc(C(=O)/C=C/c3ccc4ccccc4c3)cc2)n2nc(SCc3ccccc3Br)nc2n1`, the IC50 in the experiment on SW-620 [1] was determined as 420 nM. For the same compound, the “fold change (FC)” value with SW-620 [2] stood at 10.07.

With `Cc1cc(Nc2ccc(C(=O)/C=C/c3ccc4ccccc4c3)cc2)n2nc(SCc3ccccc3C(F)(F)F)nc2n1`, in the experiment on SW-620 [1], the IC50 came to 1240 nM. Moreover, in the experiment on SW-620 [2], the “fold change (FC)” value came out at 3.41.

For `Cc1cc(Nc2ccc(C(=O)/C=C/c3ccc4ccccc4c3)cc2)n2nc(SCc3cccc(Br)c3)nc2n1`, the concentration for half-maximal inhibition (IC50) in the experiment on SW-620 [1] is 270 nM. The “fold change (FC)” value in the experiment with SW-620 [2] is 15.67.

For `Cc1cc(Nc2ccc(C(=O)/C=C/c3cccc(F)c3)cc2)n2nc(SCc3nc4ccccc4[nH]3)nc2n1`, the IC50 in the experiment on SW-620 [3] is 590 nM. The “fold change (FC)” value in the experiment with SW-620 [4] is on record as 7.17.

Regarding `Cc1cc(Nc2ccc(C(=O)/C=C/c3ccc(OC(F)(F)F)cc3)cc2)n2nc(SCc3nc4ccccc4[nH]3)nc2n1`, in the experiment with SW-620 [3], the IC50 stood at 220 nM. Further, in the experiment on SW-620 [4], the “fold change (FC)” value is recorded as 19.5.

For the compound `COc1ccc(/C=C/C(=O)c2ccc(Nc3cc(C)nc4nc(SCc5nc6ccccc6[nH]5)nn34)cc2)cc1F`, the IC50 in the experiment with SW-620 [3] was 140 nM. The “fold change (FC)” value with SW-620 [4] was 30.21.

For `Cc1ccc(/C=C/C(=O)c2ccc(Nc3cc(C)nc4nc(SCc5nc6ccccc6[nH]5)nn34)cc2)cc1`, the IC50 with SW-620 [3] came to 1520 nM. Besides, the “fold change (FC)” value in the experiment with SW-620 [4] came out at 2.78.

As to `Cc1cc(Nc2ccc(C(=O)/C=C/c3ccc(Br)cn3)cc2)n2nc(SCc3nc4ccccc4[nH]3)nc2n1`, in the experiment with SW-620 [5], the “fold change (FC)” value is recorded as 39.09. The IC50 in the experiment with SW-620 [6] was determined as 110 nM.

Consider `Cc1cc(Nc2ccc(C(=O)/C=C/c3ccc4ccccc4c3)cc2)n2nc(SC(=O)c3csc4ccc(Cl)cc34)nc2n1`, for which the IC50 in the experiment with SW-620 [3] is 35 nM. Moreover, the “fold change (FC)” value in the experiment on SW-620 [4] worked out at 120.86.

Consider `COc1cc(/C=C/C(=O)c2ccc(Nc3cc(C)nc4nc(SCc5nc6ccccc6[nH]5)nn34)cc2)cc(OC)c1OC`, for which the “fold change (FC)” value in the experiment on SW-620 [5] was 56.4. For the same compound, in the experiment with SW-620 [6], the IC50 turned out to be 75 nM.

With `Cc1cc(Nc2ccc(C(=O)/C=C/c3ccc(OC(F)(F)F)c(OC(F)(F)F)c3)cc2)n2nc(SCc3nc4ccccc4[nH]3)nc2n1`, the “fold change (FC)” value in the experiment on SW-620 [5] is 35.25. For the same compound, in the experiment on SW-620 [6], the IC50 was 120 nM.

Turning to `Cc1cc(Nc2ccc(C(=O)/C=C/c3cccs3)cc2)n2nc(SCc3nc4ccccc4[nH]3)nc2n1`, the IC50 in the experiment with SW-620 [3] was found to be 820 nM. In addition, the “fold change (FC)” value with SW-620 [4] came to 5.15.

`Cc1cc(Nc2ccc(C(=O)/C=C/c3ccc4ccccc4c3)cc2)n2nc(SCC(=O)c3ccccc3)nc2n1`: in the experiment on SW-620 [3], the IC50 came to 190 nM. For the same compound, the “fold change (FC)” value in the experiment on SW-620 [4] is 22.26.

In the case of `Cc1cc(Nc2ccc(C(=O)/C=C/c3ccc4ccccc4c3)cc2)n2nc(SCc3cccc(C(F)(F)F)c3)nc2n1`, the IC50 in the experiment on SW-620 [1] was found to be 2070 nM. Further, the “fold change (FC)” value with SW-620 [2] was 2.04.

As to `Cc1cc(Nc2ccc(C(=O)/C=C/c3ccc(C(F)(F)F)cc3)cc2)n2nc(SCc3nc4ccccc4[nH]3)nc2n1`, in the experiment on SW-620 [3], the IC50 was found to be 1850 nM. Also, the “fold change (FC)” value in the experiment with SW-620 [4] is recorded as 2.29.

As for `Cc1cc(Nc2ccc(C(=O)/C=C/c3ccc(-n4cccn4)cc3)cc2)n2nc(SCc3nc4ccccc4[nH]3)nc2n1`, the IC50 with SW-620 [3] stood at 340 nM. In addition, in the experiment with SW-620 [4], the “fold change (FC)” value was 12.44.

Turning to `O[C@@H](COc1cccc2ncccc12)CN1CCN([C@@H]2c3ccccc3[C@@H]3[C@H](c4ccccc42)C3(F)F)CC1` [ZOSUQUIDAR], the IC50 in the experiment with SW-620 [3] is 59 nM. For the same compound, the “fold change (FC)” value in the experiment on SW-620 [4] stood at 71.1.

In the case of `Cc1cc(Nc2ccc(C(=O)/C=C/c3ccc4ccccc4c3)cc2)n2nc(SCc3cccc4ccccc34)nc2n1`, the half-inhibitory concentration (IC50) with SW-620 [3] was determined as 68 nM. Moreover, the “fold change (FC)” value with SW-620 [4] turned out to be 62.21.

In the case of `Cc1cc(Nc2ccc(C(=O)/C=C/c3ccc(Cl)cc3)cc2)n2nc(SCc3nc4ccccc4[nH]3)nc2n1`, the IC50 in the experiment with SW-620 [3] was 230 nM. Also, the “fold change (FC)” value in the experiment on SW-620 [4] came to 18.39.

As to `Cc1cc(Nc2ccc(C(=O)/C=C/c3ccc4ccccc4c3)cc2)n2nc(SCc3cccc([N+](=O)[O-])c3)nc2n1`, the IC50 in the experiment with SW-620 [1] worked out at 790 nM. The “fold change (FC)” value with SW-620 [2] was 5.35.

As for `Cc1cc(Nc2ccc(C(=O)/C=C/c3ccc4ccccc4c3)cc2)n2nc(SCc3ccc(Cl)cc3)nc2n1`, the IC50 with SW-620 [1] was determined as 570 nM. Besides, the “fold change (FC)” value with SW-620 [2] turned out to be 7.42.

In the case of `Cc1cc(Nc2ccc(C(=O)/C=C/c3cccc(Cl)c3)cc2)n2nc(SCc3nc4ccccc4[nH]3)nc2n1`, the IC50 in the experiment with SW-620 [3] was determined as 400 nM. In the experiment on SW-620 [4], the “fold change (FC)” value was 10.58.

`Cc1cc(Nc2ccc(C(=O)/C=C/c3ccc(Br)cc3)cc2)n2nc(SCc3nc4ccccc4[nH]3)nc2n1`: the IC50 with SW-620 [3] was 290 nM. The “fold change (FC)” value with SW-620 [4] turned out to be 14.59.

In the case of `Cc1cc(Nc2ccc(C(=O)/C=C/c3ccccc3)cc2)n2nc(SCc3nc4ccccc4[nH]3)nc2n1`, the IC50 with SW-620 [3] was found to be 130 nM. The “fold change (FC)” value in the experiment on SW-620 [4] stood at 32.54.

For `Cc1cc(Nc2ccc(C(=O)/C=C/c3ccccc3Cl)cc2)n2nc(SCc3nc4ccccc4[nH]3)nc2n1`, the IC50 with SW-620 [3] stood at 680 nM. Besides, in the experiment on SW-620 [4], the “fold change (FC)” value amounted to 6.22.

For the compound `COc1cc(OC)c(/C=C/C(=O)c2ccc(Nc3cc(C)nc4nc(SCc5nc6ccccc6[nH]5)nn34)cc2)c(OC)c1`, the “fold change (FC)” value with SW-620 [5] was 16.27. The IC50 in the experiment with SW-620 [6] was found to be 260 nM.

In the case of `Cc1cc(Nc2ccc(C(=O)/C=C/c3ccc4ccccc4c3)cc2)n2nc(SCc3ccc([N+](=O)[O-])cc3)nc2n1`, the IC50 in the experiment on SW-620 [1] came out at 1130 nM. Moreover, the “fold change (FC)” value with SW-620 [2] turned out to be 3.74.

Take `Cc1cc(Nc2ccc(C(=O)/C=C/c3ccc4c(c3)OC(F)(F)O4)cc2)n2nc(SCc3nc4ccccc4[nH]3)nc2n1`: in the experiment with SW-620 [5], the “fold change (FC)” value was found to be 17.63. In addition, the IC50 in the experiment with SW-620 [6] is 240 nM.

Regarding `Cc1cc(Nc2ccc(C(=O)/C=C/c3ccc4ccccc4c3)cc2)n2nc(SCc3ccc(Br)cc3)nc2n1`, the IC50 in the experiment on SW-620 [1] stood at 370 nM. The “fold change (FC)” value with SW-620 [2] was found to be 11.43.

`Cc1cc(Nc2ccc(C(=O)/C=C/c3ccc4ccccc4c3)cc2)n2nc(SCc3ccccc3[N+](=O)[O-])nc2n1`: the IC50 in the experiment on SW-620 [1] amounted to 960 nM. Further, the “fold change (FC)” value in the experiment on SW-620 [2] was 4.36.

For the compound `Cc1ccc(CSc2nc3nc(C)cc(Nc4ccc(C(=O)/C=C/c5ccc6ccccc6c5)cc4)n3n2)cc1`, in the experiment on SW-620 [1], the IC50 came out at 880 nM. The “fold change (FC)” value with SW-620 [2] was 4.81.

For `Cc1cc(Nc2ccc(C(=O)/C=C/c3ccc(F)cc3)cc2)n2nc(SCc3nc4ccccc4[nH]3)nc2n1`, the IC50 in the experiment with SW-620 [3] turned out to be 85 nM. Besides, the “fold change (FC)” value with SW-620 [4] was determined as 49.8.

Take `Cc1cc(Nc2ccc(C(=O)/C=C/c3ccc4ccccc4c3)cc2)n2nc(SCc3ccc(F)cc3)nc2n1`: in the experiment with SW-620 [1], the IC50 was 320 nM. Further, in the experiment on SW-620 [2], the “fold change (FC)” value is listed as 13.22.

Take `COc1ccc(CSc2nc3nc(C)cc(Nc4ccc(C(=O)/C=C/c5ccc6ccccc6c5)cc4)n3n2)cc1`: in the experiment on SW-620 [1], the IC50 came to 250 nM. The “fold change (FC)” value with SW-620 [2] worked out at 16.92.

The values above are taken from ChEMBL document CHEMBL5055665, “Discovery of the Triazolo[1,5-a]Pyrimidine-Based Derivative WS-898 as a Highly Efficacious and Orally Bioavailable ABCB1 Inhibitor Capable of Overcoming Multidrug Resistance” (J Med Chem, 2021).
